In PMC7944402, “Resin-acid derivatives bind to multiple sites on the voltage-sensor domain of the Shaker potassium channel” (The Journal of General Physiology, 2021):

Legend:
Shaker KV channel W454A = target: T1, Shaker KV channel W454A (Drosophila melanogaster, UniProt P08510, DEL6-46/W454A); test: Two-electrode voltage clamp in Xenopus oocytes: W454A; format: cell-based; conditions: 100 μM, pH 7.4, W454A
T1 construct: expressed in transfected cells; host or cells: Xenopus laevis oocytes (RNA injection)
Source text: (§1) The Shaker H4 channel (GenBank accession no. NM_167595.3; [Kamb et al., 1987]), with removed N-type inactivation due to a Δ6-46 deletion (ShH4IR, in Bluescript II KS(+) plasmid; [Hoshi et al., 1990]), is referred to as the WT Shaker KV channel. Addition of two positively charged arginines (M356R/A359R) at the extracellular top of the voltage sensor increases the effect of charged lipophilic compounds ([Ottosson et al., 2014], [2015], [2017]). […] However, for the resin-acid derivatives studied in the present investigation, R362 reduced the effect. Therefore, we specifically refer to the two added arginines just outside S4 (M356R/A359R) as the 2R motif. Mutations were introduced with site-directed mutagenesis and verified with sequencing as described previously ([Börjesson et al., 2010]). RNA injection and oocyte handling were performed as before ([Börjesson et al., 2010]; [Ottosson et al., 2015]). All animal experiments were approved by the Linköping’s local Animal Care and Use Committee.
(§2) Electrophysiological experiments were made 1–6 d after RNA injection. K^+ currents were measured with the two-electrode voltage-clamp technique (GeneClamp 500B amplifier; Axon Instruments) as described previously ([Ottosson et al., 2015]; [Silverå Ejneby et al., 2018]). […]
(§3) The conductance, G(V), was calculated as G(V)=I/(V−VK), (1) where I is the steady-state current measured at the end of each test-voltage sweep (100 ms after onset; Clampfit 10.5; Molecular Devices), V is the absolute membrane voltage, and VK is the reversal potential for K^+ ions (set to −80 mV). […] The resin-acid–induced G(V) shift was calculated as V1/2 (compound) − V1/2 (control). The relative change in GMAX was calculated as GMAX (compound) / GMAX (control). The concentration dependence for the G(V) shifts was calculated as ΔV= ΔVMAX/(1 +EC50/c), (3) where ΔV is the voltage shift, ΔVMAX is the voltage shift at saturating concentration, c is the concentration of the tested compound, and EC50 is the concentration at which half-maximum response occurs.

[1] = target: T2, Shaker KV channel R362Q/R365Q (Drosophila melanogaster, UniProt P08510, DEL6-46/R362Q/R365Q); test: Two-electrode voltage clamp in Xenopus oocytes: R362Q/R365Q; format: cell-based; conditions: 100 μM, pH 7.4, R362Q/R365Q
T2 construct: expressed in transfected cells; host or cells: Xenopus laevis oocytes (RNA injection)
Source text: as §1, §2, §3

Shaker KV channel R362Q [2] = target: T3, Shaker KV channel R362Q (Drosophila melanogaster, UniProt P08510, DEL6-46/R362Q); test: Two-electrode voltage clamp in Xenopus oocytes: R362Q; format: cell-based; conditions: 100 μM, pH 7.4, R362Q
T3 construct: expressed in transfected cells; host or cells: Xenopus laevis oocytes (RNA injection)
Source text: as §1, §2, §3

[3] = system: Shaker KV channel binding sites (S3/S4, S4/pore, residual); test: Additive model of site contributions to the G(V) shift (least squares fit); design: species or system Drosophila melanogaster
Source text: We also considered a reduced dataset of five mutants for Wu50 to make the comparison between the two compounds equitable (Table S1).
The G(V) shift for each mutant was expressed as a sum of contribution from the various sites: ΔVmodel=ΔVS3/S4+ΔVS4/pore+ΔVResidual, (4) where ΔVS3/S4 is the G(V) shift due to compound binding to the S3/S4 site, ΔVS4/pore is the G(V) shift due to compound binding to the S4/pore site, and ΔVResidual is the G(V) shift due to compound binding to other sites, including the top-VSD site.
Following the assumptions based on observations made using MD simulations, ΔVS3/S4 was set to 0 if the 2R motif was missing (i.e., in the WT channel), ΔVS4/pore could adopt one of four values depending on the type of mutation (R362/W454 = WT configuration, R362Q, W454A, or R362Q/W454A), and ΔVResidual was assumed to be the same for all mutants.
The model further assumed that there is a residual effect that can be due to binding to the VSD-top site or to any other unidentified site and that the contributions due to binding to the S3/S4 site and the S4/pore site depend upon mutations at this site.

[4] = target: T4, WT Shaker KV channel (ShH4IR) (Drosophila melanogaster, UniProt P08510, DEL6-46); test: Two-electrode voltage clamp of Shaker KV channels expressed in Xenopus laevis oocytes: WT; format: cell-based; conditions: for EC50: WT, pH 7.4, concentration-response (Eq. 3), read-out: EC50 of the G(V) shift (apparent affinity)
T4 construct: expressed in transfected cells; host or cells: Xenopus laevis oocytes (RNA injection)
Source text: (§4) The Shaker H4 channel (GenBank accession no. NM_167595.3; [Kamb et al., 1987]), with removed N-type inactivation due to a Δ6-46 deletion (ShH4IR, in Bluescript II KS(+) plasmid; [Hoshi et al., 1990]), is referred to as the WT Shaker KV channel. […] Therefore, we specifically refer to the two added arginines just outside S4 (M356R/A359R) as the 2R motif. Mutations were introduced with site-directed mutagenesis and verified with sequencing as described previously ([Börjesson et al., 2010]). RNA injection and oocyte handling were performed as before ([Börjesson et al., 2010]; [Ottosson et al., 2015]). All animal experiments were approved by the Linköping’s local Animal Care and Use Committee.
(§5) Electrophysiological experiments were made 1–6 d after RNA injection. K^+ currents were measured with the two-electrode voltage-clamp technique (GeneClamp 500B amplifier; Axon Instruments) as described previously ([Ottosson et al., 2015]; [Silverå Ejneby et al., 2018]). The amplifier’s leak compensation was used, and the currents were low-pass filtered at 5 kHz. The control solution contained (in mM) 88 NaCl, 1 KCl, 15 HEPES, 0.4 CaCl2, and 0.8 MgCl2, and pH was set with NaOH. All experiments were made at room temperature (20°C–23°C). The holding potential was set to −80 mV (or −100 mV if the mutant was not fully closed at −80 mV).
(§6) Stock solutions were stored at −20°C and diluted in control solution just before experiments. The test solution was added to the oocyte bath manually with a syringe. […] To make sure all Wu50 molecules were negatively charged, the pH of the control solution was set to 9.0 before the experiments.
(§7) The conductance, G(V), was calculated as G(V)=I/(V−VK), (1) where I is the steady-state current measured at the end of each test-voltage sweep (100 ms after onset; Clampfit 10.5; Molecular Devices), V is the absolute membrane voltage, and VK is the reversal potential for K^+ ions (set to −80 mV). The conductance was fitted with a Boltzmann equation (GraphPad Prism 5; GraphPad Software, Inc.) GK(V)=GMAX/{1+exp[(V½−V)/s]}, (2) where GMAX is the amplitude (maximal conductance) of the curve, V is the absolute membrane voltage, V1/2 is the midpoint, and s is the slope. The resin-acid–induced G(V) shift was calculated as V1/2 (compound) − V1/2 (control). The relative change in GMAX was calculated as GMAX (compound) / GMAX (control). The concentration dependence for the G(V) shifts was calculated as ΔV= ΔVMAX/(1 +EC50/c), (3) where ΔV is the voltage shift, ΔVMAX is the voltage shift at saturating concentration, c is the concentration of the tested compound, and EC50 is the concentration at which half-maximum response occurs.

[5] = target: T5, Shaker KV channel M356R/A359R/R362Q (Drosophila melanogaster, UniProt P08510, A359R/DEL6-46/M356R/R362Q); test: Two-electrode voltage clamp in Xenopus oocytes: 2R motif/R362Q; format: cell-based; conditions: 100 μM, pH 7.4, M356R/A359R/R362Q
T5 construct: expressed in transfected cells; host or cells: Xenopus laevis oocytes (RNA injection)
Source text: as §1, §5
as §6, with “the experiments. This pH change had only small effects on channel kinetics and the G(V) relation.” for “the experiments.”
as §3

[6] = target: T6, Shaker KV channel R362Q/R365Q/W454A/F280I (Drosophila melanogaster, UniProt P08510, DEL6-46/F280I/R362Q/R365Q/W454A); test: Two-electrode voltage clamp in Xenopus oocytes: R362Q/R365Q/W454A/F280I; format: cell-based; conditions: 100 μM, pH 7.4, R362Q/R365Q/W454A/F280I
T6 construct: expressed in transfected cells; host or cells: Xenopus laevis oocytes (RNA injection)
Source text: as §1, with “Mutations were introduced with site-directed mutagenesis and verified with sequencing as described previously ([Börjesson et al., 2010]). RNA injection and oocyte handling were performed as before ([Börjesson et al., 2010]; [Ottosson et al., 2015]). All animal experiments were approved by the Linköping’s local Animal Care and Use Committee.” left out
as §2
The conductance, G(V), was calculated as G(V)=I/(V−VK), (1) where I is the steady-state current measured at the end of each test-voltage sweep (100 ms after onset; Clampfit 10.5; Molecular Devices), V is the absolute membrane voltage, and VK is the reversal potential for K^+ ions (set to −80 mV). […] The resin-acid–induced G(V) shift was calculated as V1/2 (compound) − V1/2 (control). The relative change in GMAX was calculated as GMAX (compound) / GMAX (control). […]

[7] = target: T7, Shaker KV channel with the 2R motif (M356R/A359R) (Drosophila melanogaster, UniProt P08510, A359R/DEL6-46/M356R); test: Two-electrode voltage clamp in Xenopus oocytes: 2R motif channel; format: cell-based
T7 construct: expressed in transfected cells; host or cells: Xenopus laevis oocytes (RNA injection)
Source text: as §4, §5, §6, §7

[8] = target: T8, Shaker KV channel R362Q/W454A/F416A (Drosophila melanogaster, UniProt P08510, DEL6-46/F416A/R362Q/W454A); test: Two-electrode voltage clamp in Xenopus oocytes: R362Q/W454A/F416A; format: cell-based; conditions: 100 μM, pH 7.4, R362Q/W454A/F416A
T8 construct: expressed in transfected cells; host or cells: Xenopus laevis oocytes (RNA injection)
Source text: as §1, §2, §3

Shaker KV channel R362Q [9] = target: T3, Shaker KV channel R362Q; conditions: Fig. 1 E; ref Ottosson et al., 2017; Silverå Ejneby et al., 2018; cited from earlier work

T4 sequence (P08510 other isoform, or with tags, fused parts or gaps DEL6-46): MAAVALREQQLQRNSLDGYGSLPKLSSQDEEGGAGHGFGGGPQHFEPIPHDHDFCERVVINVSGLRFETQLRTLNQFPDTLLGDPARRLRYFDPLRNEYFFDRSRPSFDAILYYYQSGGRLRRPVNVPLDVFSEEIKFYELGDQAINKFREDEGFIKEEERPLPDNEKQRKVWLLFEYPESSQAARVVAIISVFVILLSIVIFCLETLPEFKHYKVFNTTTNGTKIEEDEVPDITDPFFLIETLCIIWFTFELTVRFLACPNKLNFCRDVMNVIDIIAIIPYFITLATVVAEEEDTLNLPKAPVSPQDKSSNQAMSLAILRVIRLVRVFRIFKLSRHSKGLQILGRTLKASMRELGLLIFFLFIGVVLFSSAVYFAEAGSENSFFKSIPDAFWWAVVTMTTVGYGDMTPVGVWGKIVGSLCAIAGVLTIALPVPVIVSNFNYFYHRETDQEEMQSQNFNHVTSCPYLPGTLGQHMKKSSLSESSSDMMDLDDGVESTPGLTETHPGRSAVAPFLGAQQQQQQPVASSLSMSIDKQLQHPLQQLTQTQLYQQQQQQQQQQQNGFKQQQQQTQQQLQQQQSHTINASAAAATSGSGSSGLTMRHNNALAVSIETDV
T7 sequence (P08510 other isoform, or with tags, fused parts or gaps DEL6-46/M356R/A359R): as the sequence (P08510 other isoform, or with tags, fused parts or gaps DEL6-46) above, with M315R, A318R counted along it
T3 sequence (P08510 other isoform, or with tags, fused parts or gaps DEL6-46/R362Q): as the sequence (P08510 other isoform, or with tags, fused parts or gaps DEL6-46) above, with R321Q counted along it
T5 sequence (P08510 other isoform, or with tags, fused parts or gaps DEL6-46/M356R/A359R/R362Q): as the sequence (P08510 other isoform, or with tags, fused parts or gaps DEL6-46) above, with M315R, A318R, R321Q counted along it
T8 sequence (P08510 other isoform, or with tags, fused parts or gaps DEL6-46/R362Q/F416A/W454A): as the sequence (P08510 other isoform, or with tags, fused parts or gaps DEL6-46) above, with R321Q, F375A, W413A counted along it
T1 sequence (P08510 other isoform, or with tags, fused parts or gaps DEL6-46/W454A): as the sequence (P08510 other isoform, or with tags, fused parts or gaps DEL6-46) above, with W413A counted along it
T6 sequence (P08510 other isoform, or with tags, fused parts or gaps DEL6-46/F280I/R362Q/R365Q/W454A): as the sequence (P08510 other isoform, or with tags, fused parts or gaps DEL6-46) above, with F239I, R321Q, R324Q, W413A counted along it
T2 sequence (P08510 other isoform, or with tags, fused parts or gaps DEL6-46/R362Q/R365Q): as the sequence (P08510 other isoform, or with tags, fused parts or gaps DEL6-46) above, with R321Q, R324Q counted along it

CC(C)c1ccc2c(c1)CC[C@H]1[C@](C)(COS(=O)(=O)O)CCC[C@]21C [Wu161]
GMAX (rel.) (Shaker KV channel W454A): 0.86 rel.
GMAX (rel.) [1]: 0.99 rel.
GMAX (rel.) (Shaker KV channel R362Q [2]): 1.05 rel.
ΔVS3/S4 (contribution of the S3/S4 site in the presence of the 2R mutations) ([3]; five mutants): −17 mV
ΔVS4/pore, R362Q configuration ([3]; five mutants): 0 to −6 mV
ΔVS4/pore, WT S4/pore site ([3]; five mutants): −7 to −13 mV
ΔVS4/pore, W454A configuration ([3]; no clear difference between five-mutants and eight-mutants datasets): +2 to −6 mV
GMAX (rel.) ([4]; 100 μM, pH 7.4, WT): 1.03 rel.
EC50 [4]: 43.7 ± 6.3 µM
GMAX (rel.) [5]: 1.19 rel.
GMAX (rel.) [6]: 0.64 rel.
GMAX (rel.) ([7]; 100 μM, pH 7.4, M356R/A359R (=2R)): 1.20 rel.
EC50 ([7]; 2R motif, pH 7.4, concentration-response (Eq. 3), read-out: EC50 of the G(V) shift (apparent affinity)): 36.4 ± 9 µM
GMAX (rel.) [8]: 0.47 rel.

CC/C=C\C/C=C\C/C=C\C/C=C\C/C=C\C/C=C\CCC(=O)O [DHA, docosahexaenoic acid]
Change of the G(V)-shifting effect on neutralization of R362 (R362Q versus WT) (Shaker KV channel R362Q [9]): no noticeable change

CC(C)c1ccc2c(c1)CC[C@H]1[C@](C)(C(=O)O)CCC[C@]21C [DHAA, dehydroabietic acid]
Change of the G(V)-shifting effect on neutralization of R362 (R362Q versus WT) (Shaker KV channel R362Q [9]): increase in effect

C[C@@]1(COS(=O)(=O)O)CCC[C@]2(C)c3cc(Cl)c(Cl)c(Cl)c3CC[C@@H]12 [Wu181]
EC50 [4]: 1.6 ± 0.6 µM
Increase of the maximum G(V) shift by the 2R motif ([7]; 2R motif versus WT, Wu50 pH 9.0, Wu161 and Wu181 pH 7.4): 590%
ΔVMAX (maximum G(V) shift) ([7]; 2R motif, pH 7.4, concentration-response (Eq. 3)): −53.6 ± 4.0 mV

CO/N=C1\C[C@H]2[C@](C)(C(=O)O)CCC[C@]2(C)c2cc(Br)c(C(C)C)cc21 [Wu32]
Change of the G(V)-shifting effect on neutralization of R362 (R362Q versus WT) (Shaker KV channel R362Q [9]): increase in effect
